Assay results from a melting point compilation (Tetko et al.; mined from patent text by program, amines drawn as free bases though some values may be those of a salt).

| SMILES | melting point [°C] |
| --- | --- |
| COc1ccc(C(=O)c2c(F)cccc2F)c(O)c1 | 71 to 72 |
| O=Cc1cc(OCCCC(=O)O)ccc1[N+](=O)[O-] | 112 to 114 |
| Nc1nc2c(c(Nc3ccc(Br)cc3)n1)-c1ccccc1C2 | 214 to 215 |
| Fc1ccc(C=Nn2cncn2)cc1 | 118 to 120 |
| O=C(O)C(=O)c1cccc(OCc2ccccc2Cl)c1OCc1ccccc1Cl | 116 to 118 |
| CCOC(=O)c1cnc2nn(C)cc2c1NC | 178 to 180 |
| O=c1[nH]c2ccccc2n1CCN1CCN(Cc2ccccc2)CC1 | 136 |
| COC(=O)C1=C(C)Nc2ccccc2N(C(C)=O)C1c1cccc([N+](=O)[O-])c1 (stereo unspecified) | 231 to 232 |
| COC(=O)Cc1cc(C)ccc1OCc1ccc(OCc2nc(-c3ccccc3)oc2C)cc1 | 80 to 81 |
| CC(CCC(F)(F)C(C)(C)O)C1CCC2C3CCC4CC(O)CCC4(C)C3CCC12C (stereo unspecified) | 142 |
| CNc1nc(Nc2ccc(Cl)c(Cl)c2)ncc1NC(=O)OC | 303 to 305 |
| CCN(CC)C(=O)c1cccc(C=O)c1 | 115 to 119 |
| COc1ccc(C=CC(=O)c2c(OC)cc(OC)cc2OC(=O)OCc2ccccc2)cc1 | 127 |
| COC=Nc1cc(-c2ncon2)nn1-c1c(Cl)cc(C(F)(F)F)cc1Cl | 113 to 114 |
| CN1C(=O)CC[C@]2(C)c3ccc(-c4cccc(NC(=O)C(C)(C)C)c4)cc3CC[C@@H]12 | 95 to 98 |
| CS(=O)(=O)OCCCc1ccc(OCc2coc(/C=C/c3ccccc3)n2)cc1 | 111 to 112 |
| O=C1CCC(N2C(=O)c3cccc(OCc4cc5ccccc5s4)c3C2=O)C(=O)N1 (stereo unspecified) | 247 to 249 |
| CSc1ccc2ncn(CCN3CCC(Nc4nc5ccccc5n4Cc4ccc(F)cc4)CC3)c(=O)c2c1 | 101 |
| CCOC(=O)Nc1c(C(=O)c2cccc(C)c2)[nH]c2cc(Cl)ccc12 | 154 to 157 |
| CCCCC(CC)COc1c(-c2ccc(S(C)(=O)=O)cc2)cnn(-c2ccc(F)cc2)c1=O (stereo unspecified) | 120 to 122 |
| Fc1ccc(C(c2ccc(F)c(F)c2)c2ccc(F)c(F)c2)cc1F | 95 to 96 |
| CC(=O)CN1CCNC1=Nc1c(Cl)cccc1Cl | 84 to 86 |
| OC(CN1CCN(C(c2ccccc2)c2ccccc2)CC1)c1ccc(OCc2ccccc2)cc1 (stereo unspecified) | 129 |
| O=CNC1=NN(c2ccccn2)CC1 | 182 to 183 |

| SMILES | melting point [°C] |
| --- | --- |
| COC(=O)C[C@@H]1C[C@@H](COc2ccc(-c3ccc(C(=N)NC(=O)OCc4ccccc4)cc3)cc2)NC1=O | 160 to 164 |
| O=C(NO)c1ccc(C(=O)NOCCC23CC4CC(CC(C4)C2)C3)cc1 | 198 to 200 |
| O=C(O)c1cc(-n2c(-c3ccccc3)cc3c2Cc2ccccc2-3)ccc1O | 201 to 205 |
| CCCCN(CCCOc1ccc(S(=O)(=O)c2c(C(C)C)cn3ccccc23)cc1)C(C)c1ccc(OC)c(OC)c1 (stereo unspecified) | 108 to 110 |
| O=C(Oc1ccccc1)N1CCC(c2noc3cccc(F)c23)CC1 | 108 to 110 |
| Cc1cc(-n2cnnc2)ccc1N | 152 to 154 |
| Cc1c[nH]c(CCC(=O)O)c1 | 109 to 112 |
| CCOC(=O)CCNC(=O)CN1CCOc2ccc(NC(=O)NCc3ccccc3)cc2C1=O | 70 to 75 |
| CC(Cl)C(=O)c1ccc(OCCCN2C(=O)c3ccccc3C2=O)cc1 (stereo unspecified) | 137 to 138 |
| CCOc1cnn(-c2cc(-c3ccnc(Nc4cccc(Cl)c4)n3)ccn2)c(=O)c1Cl | 196 to 198 |
| CC1(C)Oc2ccc(C#N)cc2[C@@H](N2CC(OCc3ccccc3)=CC2=O)[C@@H]1O (relative stereo) | 248 |
| NC(=O)COc1ccc(CCNS(=O)(=O)c2ccc(Cl)cc2)cc1 | 158 to 159 |
| CN1CC=C(c2c[nH]c3ccc(NC(=O)c4ccc(Cl)cc4)cc23)CC1 | 224 to 226 |
| COc1ccc(-n2nc(CCCNO)cc2-c2ccc(Cl)cc2)cc1 | 91 to 93 |
| N#CC(N=Nc1cc(S(=O)(=O)O)ccc1OC(=O)c1ccccc1)=C(OC(=O)c1ccccc1)c1ccccc1 | 193 to 195 |
| O=C(O)c1cn(CCc2ccc(Cl)cc2)c2cc(C3CC3)nn2c1=O | 220 to 225 |
| CC(=S)NC[C@H]1CN(c2ccc3c(c2)CCCc2cn[nH]c2-3)C(=O)O1 | 190 to 195 |
| O=c1[nH]c2nc3ccccc3n2c(=O)n1CCc1ccccc1 | 298 |
| COc1ccc2sc3cc(-c4nnn[nH]4)ccc3c(=O)c2c1 | > 350 |
| O=C(Nc1nncs1)c1sc(Nc2ccccc2)c2c1CCc1cnoc1-2 | 227 to 229 |
| CCOC(=O)c1cc([N+](=O)[O-])c(C(=O)O)cc1C(=O)O | 189 to 191 |
| CSc1c(C(Cc2ccc(Cl)cc2)C(=O)O)ccc2c3ccccc3n(Cc3ccc(Cl)cc3)c12 (stereo unspecified) | 104 to 107 |
| O[C@@H](c1n[nH]cc1-c1ccccc1)[C@H](CCN1CCC(O)(c2ccccc2)CC1)c1ccc(Cl)c(Cl)c1 (racemic) | 122 to 124 |
| CN1Cc2c(C(N)=NO)ncn2-c2ccc(F)c(Cl)c2C1=O | 228 to 231 |

| SMILES | melting point [°C] |
| --- | --- |
| COc1cc(OC)cc(-c2nc(CCOc3ccc(C[C@H](OC)C(=O)O)c4sccc34)c(C)o2)c1 | 194 to 195 |
| Cc1cc(-c2ccccc2)n2nccc2n1 | 70 to 71 |
| c1ccc(-c2ccc(-n3cccc3)cc2)cc1 | 190 to 192 |
| Nc1sc(-c2cccc(F)c2)c(CN(C2CCCCC2)C2CCCCC2)c1C(=O)c1ccc(Cl)cc1 | 205 to 207 |
| O=c1nc(-c2cccc(CSc3ccncc3)n2)sc2ccccc12 | 182 |
| CC(=O)Nc1c(C(=O)c2cc(-c3ccccc3)no2)[nH]c2cc(Cl)ccc12 | 209 to 210 |
| COC(=S)OCC(COC(=S)OC)OCn1cnc2c(=O)[nH]c(N)nc21 | 148 to 150 |
| CC(C)c1ccc(-c2cnc(-c3cccc(C(=O)O)c3)o2)cc1 | 150 to 153 |
| COc1ccc(C2CCc3cc(C)ccc3C2=O)cc1 (stereo unspecified) | 80 to 82 |
| CC(C)n1c(=O)c2c(-c3nc(C4CC4)no3)ncn2c2cccnc21 | 221 to 223 |
| Nc1nc(Nc2cccnc2)nn1-c1ccccn1 | 256 |
| COc1cccc(C(=O)N(C(=O)OCI)N(C(=O)c2cc(C)cc(C)c2)C(C)(C)C)c1C | 70 to 72 |
| COc1cc2c(cc1OC)CN(CCCCc1ccc(NC(=O)c3cccc4c(=O)c5cccc(C)c5[nH]c34)cc1)CC2 | 140 |
| Fc1ccc(OCCCN2CCC(CNc3nc4ccccc4s3)CC2)c(OCc2ccccc2)c1 | 130 |
| NCC(=O)N[C@@H]1CN2C(=O)N(c3cc(Cl)nc(Cl)c3)C(=O)[C@@]2(Cc2ccc(OC(F)(F)F)cc2)C1 | 114 |
| CC(=O)c1ccccc1NC(=O)C(Cl)(Cl)Cl | 113 |
| COc1ccc(OCC(O)COc2cccc3oc(C(=O)O)cc(=O)c23)cc1 (stereo unspecified) | 125 to 126 |
| c1ccc(-n2c(-c3ccc(OCCN4CCCCC4)cc3)nc3ccccc32)cc1 | 107 |
| OCC(O)COCCCCCCCCOc1ccc(-c2ccccc2)cc1 (stereo unspecified) | 94 to 96 |
| FC(F)(F)c1nnc(S)s1 | 72 to 73 |
| C=CCNc1ncnc2c1ncn2Cc1c(F)cccc1Cl | 163 to 164 |
| CCCCCCCCCCCCCCCCC(=O)Nc1ccn(C2OC(CO)C(O)C2O)c(=O)n1 (stereo unspecified) | 144 to 147 |
| N=C(NCCN1CCC(Nc2nc3ccccc3n2Cc2ccc(F)cc2)CC1)N[N+](=O)[O-] | 147 |
| O=C(c1ccc(F)cc1)C1CCN(C(=O)c2ccc([N+](=O)[O-])cc2)CC1 | 168 to 170 |

| SMILES | melting point [°C] |
| --- | --- |
| N#CC(N)C=Cc1ccccc1 (stereo unspecified) | 79 |
| CCN1C(=O)C(C(=O)Nc2ccc(F)cc2)c2cc3c(cc21)CC(C)O3 (stereo unspecified) | 196 to 197 |
| O=C(Nc1ccc(NCCCO)nc1)c1cc2cc(C(F)(F)F)cnc2n1Cc1cccc(F)c1 | 207 to 210 |
| CC1(C)Cc2c(Cl)cccc2C1N=CNC#N (stereo unspecified) | 173 to 175 |
| COc1cc(-c2nc3ccc(OCC(C)N(C)C)cc3n2Cc2ccccc2Br)cc(OC)c1OC (stereo unspecified) | 152 |
| Cc1cc(C(=O)Nc2nc(-c3ccoc3)c(C(=O)C3CCOCC3)s2)ccn1 | 202 to 204 |
| CCOC(=O)C(C)(C)CCCOc1ccc(OCCn2c(=O)sc3cc(C(=O)c4ccccc4)ccc32)cc1 | 82 to 84 |
| CCOC(=O)C=Cc1ccc(N)cc1C | 73 to 74 |
| O=C(O)c1cc(O)c(-c2ccccc2)c([N+](=O)[O-])c1 | 213 to 215 |
| COc1ccccc1Oc1c(NS(=O)(=O)c2ccc(CC(C)C)cc2)nc(-c2ncccn2)nc1OCCOC(N)=O | 138 to 140 |
| CCCC(=O)NCc1cccc2c1CN(C1CCC(=O)NC1=O)C2=O (stereo unspecified) | 244 to 246 |
| CC12C=CC(=O)C=C1CCC1C2=CCC2(C)C1CCC2(O)C(=O)CCl (stereo unspecified) | 205 to 206 |
| OCc1conc1-c1ccc(-c2ccccc2)cc1 | 138 to 139 |
| CC1(Cc2ccccc2)Cc2cc(O)c(Cl)c(Cl)c2C1=O (stereo unspecified) | 219 to 221 |
| CC(N)CC(=O)Nc1ccc(Nc2ccccc2)cc1 (stereo unspecified) | 130 to 132 |
| COCCCOc1ccc(/C=C(\OC)C(=O)O)c(Oc2ncc(C(F)(F)F)cc2Cl)c1 | 140 to 141 |
| O=C(c1cccs1)c1cnc2[nH]ncc2c1NC1CC1 | 268 to 270 |
| COc1cccc(CN2CCN(CC(=O)N3CC=C(c4ccccc4)n4ncc(C#N)c43)CC2)c1 | 98 to 100 |
| CCOCc1cc(COc2cc(CCC(=O)O)n(-c3ccccc3)n2)cc(Oc2ncc(C(F)(F)F)cc2Cl)c1 | 124 to 128 |
| O=C1N(Cc2ccc(OCc3ccccc3)cc2)c2ccccc2C12COc1cc3c(cc12)CCO3 (stereo unspecified) | 169 to 170 |
| COC(=O)CSc1c(C)cc(C(O)(C(F)(F)F)C(F)(F)F)cc1C | 99 to 101 |
| CCOC(=O)c1c(=O)c2cc(F)c(F)cc2n2ccccc12 | 200 |
| CCOC(=O)C(C)(C)Oc1ccc(C=Cc2ccccc2)cc1 | 55 to 65 |
| O=C1N(C2CCCCC2)CC(CCl)C1(c1ccccc1)c1ccccc1 (stereo unspecified) | 124 to 126 |
